Test: xn = mol fraction of the nth substance listed

CCCCN + O=C1CCCCC1
Conditions | viscosity [mPa·s]
298.15 K, 101 kPa, x2 = 0.0765 | 0.623
298.15 K, 101 kPa, x2 = 0.157 | 0.754
298.15 K, 101 kPa, x2 = 0.2421 | 0.903
298.15 K, 101 kPa, x2 = 0.3319 | 1.06
298.15 K, 101 kPa, x2 = 0.427 | 1.223
298.15 K, 101 kPa, x2 = 0.5278 | 1.392
298.15 K, 101 kPa, x2 = 0.6349 | 1.563
298.15 K, 101 kPa, x2 = 0.7488 | 1.725
298.15 K, 101 kPa, x2 = 0.8702 | 1.88
303.15 K, 101.33 kPa, x1 = 0.1251 | 2.752
303.15 K, 101.33 kPa, x1 = 0.2012 | 2.984
303.15 K, 101.33 kPa, x1 = 0.2448 | 3.075
303.15 K, 101.33 kPa, x1 = 0.3617 | 3.092
303.15 K, 101.33 kPa, x1 = 0.5296 | 2.811
303.15 K, 101.33 kPa, x1 = 0.6105 | 2.592
303.15 K, 101.33 kPa, x1 = 0.7626 | 1.94
303.15 K, 101.33 kPa, x1 = 0.887 | 1.202

OC1CCCCCC1 + OCCO
viscosity [mPa·s], 100 kPa
Conditions | 293.15 K | 298.15 K | 303.15 K | 308.15 K | 313.15 K | 318.15 K
x1 = 0.0095 | 20.34 | 16.92 | 13.81 | 11.37 | 9.587 | 7.9
x1 = 0.0395 | 20.45 | 16.98 | 13.85 | 11.42 | 9.625 | 7.92
x1 = 0.0578 | 20.52 | 17.02 | 13.9 | 11.44 | 9.638 | 7.931
x1 = 0.0878 | 20.65 | 17.12 | 13.95 | 11.49 | 9.678 | 7.957
x1 = 0.1 | 20.71 | 17.16 | 13.98 | 11.51 | 9.694 | 7.972
x1 = 0.1961 | 21.18 | 17.53 | 14.22 | 11.7 | 9.819 | 8.064
x1 = 0.305 | 21.95 | 18.16 | 14.85 | 12.27 | 10.25 | 8.379
x1 = 0.3969 | 22.89 | 19.04 | 15.54 | 12.83 | 10.68 | 8.723
x1 = 0.4993 | 24.41 | 20.37 | 16.58 | 13.61 | 11.32 | 9.271
x1 = 0.5877 | 26.32 | 21.93 | 17.76 | 14.49 | 12.06 | 9.883
x1 = 0.6993 | 29.93 | 24.59 | 19.71 | 15.94 | 13.24 | 10.77
x1 = 0.7996 | 34.97 | 28.03 | 22.14 | 17.65 | 14.57 | 11.68
x1 = 0.8977 | 45.8 | 36.3 | 28.9 | 22.7 | 19 | 15.7

O=C(O)C(Cl)(Cl)Cl + Oc1ccccc1
323.15 K, 101 kPa
Conditions | viscosity [mPa·s]
x2 = 0.1005 | 5.083
x2 = 0.1834 | 5.115
x2 = 0.245 | 5.126
x2 = 0.3305 | 5.085
x2 = 0.4032 | 5.012
x2 = 0.5025 | 4.779
x2 = 0.5925 | 4.683
x2 = 0.6928 | 4.342
x2 = 0.76 | 4.127
x2 = 0.8544 | 3.811
x2 = 0.9117 | 3.569

[I-].[K+] + [2H]O[2H]
viscosity [mPa·s], 101 kPa
Conditions | x1 = 0.011 | x1 = 0.021 | x1 = 0.036 | x1 = 0.053 | x1 = 0.076 | x1 = 0.121
298.15 K | 1.036 | 0.97 | 0.942 | 0.936 | 0.972 | 1.098
308.15 K | 0.829 | 0.794 | 0.776 | 0.783 | 0.823 | 0.942
318.15 K | 0.692 | 0.667 | 0.662 | 0.68 | 0.715 | 0.827

CCCCN + c1ccccc1
viscosity [mPa·s], 101 kPa
Conditions | 303.15 K | 313.15 K
x1 = 0.009356 | 0.5633 | 0.4919
x1 = 0.01948 | 0.5628 | 0.4907
x1 = 0.02841 | 0.5622 | 0.4905
x1 = 0.03798 | 0.562 | 0.4893
x1 = 0.048 | 0.5618 | 0.4884
x1 = 0.0558 | 0.536 | –
x1 = 0.05882 | 0.5617 | 0.4876
x1 = 0.0669 | 0.5608 | 0.4869
x1 = 0.07642 | 0.5598 | 0.4861
x1 = 0.08586 | 0.5588 | 0.4852
x1 = 0.1165 | 0.516 | –
x1 = 0.2036 | 0.494 | –
x1 = 0.2875 | 0.479 | –
x1 = 0.382 | 0.465 | –
x1 = 0.5164 | 0.453 | –
x1 = 0.5676 | 0.451 | –
x1 = 0.6631 | 0.448 | –
x1 = 0.7656 | 0.447 | –
x1 = 0.8602 | 0.446 | –
x1 = 0.9278 | 0.444 | –
x2 = 0.0974 | 0.4454 | –
x2 = 0.1974 | 0.4466 | –
x2 = 0.5007 | 0.4542 | –
x2 = 0.6051 | 0.4738 | –
x2 = 0.7995 | 0.5056 | –
x2 = 0.9004 | 0.5322 | –

CC[N+](=O)[O-] + c1ccccc1
293.15 K, 101.33 kPa
Conditions | viscosity [mPa·s]
x1 = 0.0901 | 0.628
x1 = 0.1956 | 0.611
x1 = 0.2856 | 0.602
x1 = 0.3897 | 0.595
x1 = 0.4893 | 0.594
x1 = 0.5827 | 0.597
x1 = 0.6952 | 0.608
x1 = 0.7869 | 0.622
x1 = 0.879 | 0.644
